Laboratory results from US10279190B2, “Treating disease with resonance generating electromagnetic fields” (Anapole Technologies Inc., priority 2016, dated 2019).
Marks after values point to notes of the source that are not given here.

Experiments:
[1] = system: U-87 MG cells; assay: U-87 MG cell number (count & viability) after docetaxel treatment; type: cell-based; settings: 25 nM docetaxel, 72 hours, vs vehicle control, not significant
Method: (§1) U-87 MG cells may be plated at a density of 8×10^5 cells/150-mm dish. 48 hours after plating, cells may be treated with vehicle control or 25 nM docetaxel for 72 hours. At the end of treatment, cells may be harvested by trypsinization, and an aliquot of live/unfixed cells may be used to determine cell number, PS externalization, and caspase-3/7 activity using a cell analyzer. Remaining cells may be fixed for cell cycle analysis using a cell analyzer and DNA fragmentation analysis by BD LSRII Flow Cytometry as described below.
(§2) U-87 MG cells harvested by trypsinization may be pooled with media plus washes and pelleted by centrifugation. The cells may be re-suspended in complete media diluted 1:10 with PBS (1% FBS/PBS). For determination of count and viability, an aliquot of the cell suspension may be diluted 1:10 with a count & viability reagent, which differentially stains viable and non-viable cells based on their permeability to two DNA binding dyes, and incubated for 5 minutes in the dark at room temperature according to manufacturer's protocol. For detection of phosphatidylserine (PS) externalization, an aliquot of cell suspension appropriately diluted in 1% FBS/PBS may be mixed 1:1 with an Annexin V & dead cell reagent and incubated for 20 minutes in the dark at room temperature according to manufacturer's protocol. […]

[2] = system: U-87 MG cells; settings: 25 nM, 72 hours; "has been shown"; cited from earlier work
[3] = system: U-87 MG cells; assay: Caspase-3/7 activation in U-87 MG cells; type: cell-based; settings: 25 nM, 72 hours, vs vehicle control
Method: as §1
U-87 MG cells harvested by trypsinization may be pooled with media plus washes and pelleted by centrifugation. The cells may be re-suspended in complete media diluted 1:10 with PBS (1% FBS/PBS). […]
Cleavage by active caspase-3/7 releases the dye within the cell and results in translocation to the nucleus, binding to DNA and high fluorescence. […] A cell cycle reagent may be a proprietary formulation containing the DNA intercalating dye propidium iodide and RNAse A. The multiparametric fluorescent detection of individual cells may be performed by a cell analyzer, a microcapillary flow cytometer equipped with a 532-nm laser, a forward scatter and two fluorescence (YLW 576/26, RED 680/30) detectors. […]

[4] = system: U-87 MG cells; assay: Cell cycle analysis of U-87 MG cells (cell cycle reagent, propidium iodide); type: cell-based; settings: 25 nM, 72 hour treatment; proportion of cells in cell cycle phase, mean±SD, n=3
Method: as §1
Cleavage by active caspase-3/7 releases the dye within the cell and results in translocation to the nucleus, binding to DNA and high fluorescence. For cell cycle analysis, an ethanol-fixed cell suspension may be obtained by taking an aliquot of cell suspension, pelleting by centrifugation, resuspending in PBS, and fixing in 70% ethanol at −20° C. Fixed cells may be washed in PBS/0.2% BSA, pelleted by centrifugation, resuspended in a cell cycle reagent, and incubated for 30 minutes in the dark at room temperature according to manufacturer's protocol. A cell cycle reagent may be a proprietary formulation containing the DNA intercalating dye propidium iodide and RNAse A. The multiparametric fluorescent detection of individual cells may be performed by a cell analyzer, a microcapillary flow cytometer equipped with a 532-nm laser, a forward scatter and two fluorescence (YLW 576/26, RED 680/30) detectors. Data acquisition and analysis of count & viability, Annexin V & dead cell, and caspase-3/7 assays may be done by analysis software. Post-acquisition analysis of cell cycle data may be performed using software (e.g., FlowJo 7.6.5).
Table 5 is a cell cycle analysis of U-87 MG cells after 72 hour treatment with 25 nM docetaxel. At the end of 72 hour treatment, cells may be harvested and cell cycle may be determined by incubating the cells in a cell cycle reagent and following the manufacturer's protocol. Data represent the mean±SD of three independent biological replicates (*p<0.1).

[5] = system: U-87 MG cells; assay: PS externalization (Annexin V staining) in U-87 MG cells; type: cell-based; settings: 25 nM, 72 hours, vs vehicle control
Method: as §1, §2

[6] = system: U-87 MG cells; assay: DNA fragmentation of U-87 MG cells (APO-BRDU, flow cytometry); type: cell-based; settings: 25 nM, 72 hour treatment; percentage of the cell population, mean±SD, n=2
Method: as §1
For analysis of DNA fragmentation, U-87 MG cells may be harvested by trypsinization, collected by centrifugation, fixed in 2% formaldehyde in PBS, and permeabilized in 70% EtOH at −20° C. DNA strand breaks in cells undergoing apoptosis may be indirectly labeled with bromodeoxyuridine by terminal transferase and detected by FITC-conjugated monoclonal antibody to bromodeoxyuridine using the APO-BRDU kit according to manufacturer's protocol. Cells may be counterstained with 5 μg/ml propidium iodide containing RNase A for detection of total DNA, and two-color analysis of DNA strand breaks and cell cycle may be achieved by flow cytometry. Flow cytometric analysis may be performed on a BD LSR II Flow Cytometer equipped with three excitation lasers (405-nm, 488-nm and 633-nm). For DNA fragmentation analysis, FITC and PI signals may be collected by 488-nm octagon detection array with no color compensation. 10,000 events gated on single cell populations may be collected and post-acquisition analysis may be performed using software FlowJo 7.6.5.
Table 6 is an analysis of DNA fragmentation of U-87 MG cells after 72 hour treatment with 25 nM docetaxel. DNA fragmentation may be determined by flow cytometry as described above.

Compound: CC(=O)O[C@@]12CO[C@@H]1C[C@H](O)[C@@]1(C)C(=O)[C@H](O)C3=C(C)[C@@H](OC(=O)[C@H](O)[C@@H](NC(=O)OC(C)(C)C)c4ccccc4)C[C@@](O)([C@@H](OC(=O)c4ccccc4)[C@H]21)C3(C)C [Docetaxel, docetaxel]
- decrease in U-87 MG cell number [1]: 20%
- decrease in U-87 MG cell number ([1]; listed as docetaxel): approximately 20%
- arresting cell growth in U-87 MG cells, compared with temozolomide [2]: as effective as temozolomide
- caspase-3/7 activation [3]: significant increase
- G1 [4]: 39.7 ± 4.8*
- G2/M [4]: 22.1 ± 4.4
- S [4]: 26.7 ± 1.7*
- Sub-G0 [4]: 9.9 ± 3.9*
- Annexin V positive cells [5]: significant increase
- DNA Frag (+) Apoptotic bodies (upper left quadrant) [6]: 0.10 ± 0.0%
- DNA Frag (+) Cells (upper right quadrant) [6]: 2.11 ± 1.69%
- DNA Frag (−) Apoptotic bodies (lower left quadrant) [6]: 3.57 ± 1.65%
- DNA Frag (−) Cells (lower right quadrant) [6]: 94.2 ± 0.07%
